Test results from patent publication US9035056B2, “Pyrido[4,3-b]indole and pyrido[3,4-b]indole derivatives and methods of use” (Medivation Technologies, Inc., priority 2011, dated 2015).

Tests used:
[1] = biological target: T1, human recombinant adrenergic α1D receptor (Homo sapiens, UniProt P25100); assay: Adrenergic α1D radioligand binding ([3H]Prazosin); conditions: 0.1 μM compound; read-out: Percentage inhibition of ligand binding, Adrenergic α1D
T1 construct: expressed in transfected cells; host or cells: HEK-293
T1 sequence (P25100 1-572): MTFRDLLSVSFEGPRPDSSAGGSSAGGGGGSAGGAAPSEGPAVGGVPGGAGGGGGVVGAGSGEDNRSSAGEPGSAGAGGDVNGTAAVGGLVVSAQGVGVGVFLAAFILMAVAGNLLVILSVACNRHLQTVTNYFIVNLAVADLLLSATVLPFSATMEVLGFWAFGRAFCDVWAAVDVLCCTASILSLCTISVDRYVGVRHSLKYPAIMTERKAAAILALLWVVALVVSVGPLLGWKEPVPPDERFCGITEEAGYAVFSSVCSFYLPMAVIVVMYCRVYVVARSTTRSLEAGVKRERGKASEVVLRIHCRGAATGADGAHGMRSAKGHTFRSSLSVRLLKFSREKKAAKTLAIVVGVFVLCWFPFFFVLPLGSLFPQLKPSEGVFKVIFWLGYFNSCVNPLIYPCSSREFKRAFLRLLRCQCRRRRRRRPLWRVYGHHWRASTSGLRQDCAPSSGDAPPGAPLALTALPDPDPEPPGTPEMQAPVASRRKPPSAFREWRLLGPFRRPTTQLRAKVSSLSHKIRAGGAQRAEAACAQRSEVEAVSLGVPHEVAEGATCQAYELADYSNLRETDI
Experimental: To evaluate in radioligand binding assays the activity of compounds of the invention, human recombinant adrenergic α1D receptor expressed in human embryonic kidney (HEK-293) cells (Kenny, B. et al, Br. J. Pharmacol. 115(6):981, 1995) in a 50 mM Tris-HCl buffer, pH 7.4, was used. Compounds of invention were incubated with 0.6 nM [^3H]Prazosin for 60 min at 25° C. Non-specific binding was estimated in the presence of 10 μM phentolamine. Receptor proteins were filtered and washed, the filters were then counted to determine [^3H]Prazosin specifically bound. Compounds were screened at 1 μM or lower, using 1% DMSO as vehicle. Biochemical assay results are presented as the percent inhibition of specific binding in Table 3.

[2] = biological target: T2, human recombinant adrenergic α2C receptor (Homo sapiens, UniProt P18825); assay: Adrenergic α2C radioligand binding ([3H]MK-912); conditions: 0.1 μM compound; read-out: Percentage inhibition of ligand binding, Adrenergic α2C
T2 construct: expressed in transfected cells; host or cells: insect Sf9 cells
T2 sequence (P18825 1-462): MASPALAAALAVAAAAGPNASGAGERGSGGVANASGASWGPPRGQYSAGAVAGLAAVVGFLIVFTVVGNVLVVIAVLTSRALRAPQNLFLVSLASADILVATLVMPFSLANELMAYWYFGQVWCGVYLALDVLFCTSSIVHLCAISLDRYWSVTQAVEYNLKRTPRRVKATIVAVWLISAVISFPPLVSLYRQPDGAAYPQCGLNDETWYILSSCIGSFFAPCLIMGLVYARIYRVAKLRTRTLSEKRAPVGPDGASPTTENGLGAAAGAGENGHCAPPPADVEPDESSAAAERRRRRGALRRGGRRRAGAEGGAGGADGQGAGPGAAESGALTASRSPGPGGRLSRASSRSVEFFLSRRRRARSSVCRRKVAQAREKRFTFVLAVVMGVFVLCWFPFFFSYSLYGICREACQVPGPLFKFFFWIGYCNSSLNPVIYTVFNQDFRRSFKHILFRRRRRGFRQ
Experimental: To evaluate in radioligand binding assays the activity of compounds of the invention, human recombinant adrenergic α2C receptor expressed in insect Sf9 cells (Uhlen, S. et al, J. Pharmacol. Exp. Ther. 271:1558, 1994) in a modified Tris-HCl buffer (50 mM Tris-HCl, pH 7.4, 12.5 mM MgCl2, 2 mM EDTA) was used. Compounds of the invention were incubated with 1 nM [^3H]MK-912 for 60 min at 25° C. Non-specific binding was estimated in the presence of 10 μM WB-4101. Receptor proteins were filtered and washed, the filters were then counted to determine [^3H]MK-912 specifically bound. Compounds were screened at 1 μM or lower, using 1% DMSO as vehicle. Biochemical assay results are presented as the percent inhibition of specific binding in Table 3.

[3] = biological target: T3, human recombinant serotonin (5-Hydroxytryptamine) 5-HT2A receptor (Homo sapiens, UniProt P28223); assay: Serotonin 5-HT2A radioligand binding ([3H]Ketanserin); conditions: 0.1 μM compound; read-out: Percentage inhibition of ligand binding, Serotonin 5-HT2A
T3 construct: expressed in transfected cells; host or cells: CHO-K1
Experimental: To evaluate in radioligand binding assays the activity of compounds of the invention, human recombinant serotonin (5-Hydroxytryptamine) 5-HT2A receptor expressed in Chinese hamster ovary (CHO) K1 cells (Bonhaus, D. et al, Br. J. Pharmacol. 115:622, 1995; Saucier, C. et al, J. Neurochem. 68:1998, 1997) in a 50 mM Tris-HCl buffer, pH 7.4, was used. Compounds of the invention were incubated with 0.5 nM [^3H]Ketanserin for 60 min at 25° C. Non-specific binding was estimated in the presence of 1 μM Mianserin. Receptor proteins were filtered and washed, the filters were then counted to determine [^3H]Ketanserin specifically bound. Compounds were screened at 1 μM or lower, using 1% DMSO as vehicle. Biochemical assay results are presented as the percent inhibition of specific binding in Table 5.

T3 sequence (P28223 whole entry): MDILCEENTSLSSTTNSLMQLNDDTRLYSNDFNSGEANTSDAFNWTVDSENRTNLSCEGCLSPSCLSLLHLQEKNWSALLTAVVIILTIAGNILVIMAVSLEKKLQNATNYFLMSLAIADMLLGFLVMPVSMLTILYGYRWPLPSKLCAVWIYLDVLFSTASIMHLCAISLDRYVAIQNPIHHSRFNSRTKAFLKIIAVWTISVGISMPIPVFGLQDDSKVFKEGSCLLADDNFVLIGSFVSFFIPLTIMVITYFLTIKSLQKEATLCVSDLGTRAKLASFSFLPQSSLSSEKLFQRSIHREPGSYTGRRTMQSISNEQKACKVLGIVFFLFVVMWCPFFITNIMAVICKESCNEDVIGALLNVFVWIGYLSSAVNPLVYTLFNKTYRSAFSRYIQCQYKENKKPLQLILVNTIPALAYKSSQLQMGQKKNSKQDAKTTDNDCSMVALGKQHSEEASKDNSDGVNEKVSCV

Row | SMILES | inhibition at 0.1 µM [1] | inhibition at 0.1 µM [2] | inhibition at 0.1 µM [3]
1 | Cc1ccc2c(c1)c1c(n2/C=C2/CCCc3ccccc32)CCN(C)C1 [i-2] | 86% | 90% | 99%
2 | Cc1ccc2c(c1)c1c(n2/C=C2\CCCc3ccccc32)CCN(C)C1 [i-3] | 43% | 72% | 100%
